Measured values taken from ChEMBL document CHEMBL1649066, “An imidazopiperidine series of CCR5 antagonists for the treatment of HIV: the discovery of N-{(1S)-1-(3-fluorophenyl)-3-[(3-endo)-3-(5-isobutyryl-2-methyl-4,5,6,7-tetrahydro-1H-imidazo[4,5-c]pyridin-1-yl)-8-azabicyclo[3.2.1]oct-8-yl]propyl}acetamide (PF-232798)” (J Med Chem, 2011).
Active and inactive are the calls of the source. The rule behind the calls is not given here.

Key:
[1] = tested on: Human immunodeficiency virus 1; assay: Antiviral activity against maraviroc-resistant HIV1 isolate CC185 at 10 times IC90 concentration; type: functional, organism-based
[2] = tested on: Human immunodeficiency virus 1; assay: Antiviral activity against maraviroc-resistant HIV1 isolate CC185 at 100 times IC90 concentration; type: functional, organism-based
[3] = tested on: Human immunodeficiency virus 1; assay: Antiviral activity against maraviroc-resistant HIV1 isolate CC185 at IC90 concentration; type: functional, organism-based
Rattus norvegicus [4] = assay: Unbound clearance in rat at 1 mg/kg, iv and 2 mg/kg, po; type: ADME, organism-based; conditions: in vivo
[5] = Plasma protein binding in dog at 0.5 mg/kg, iv and 0.5 mg/kg, po; type: ADME, organism-based, Canis lupus familiaris; conditions: read-out: PPB (converted)
[6] = Clearance in dog at 0.5 mg/kg, iv and 0.5 mg/kg, po; type: ADME, organism-based, Canis lupus familiaris; conditions: in vivo
Canis familiaris [7] = assay: Unbound clearance in dog at 0.5 mg/kg, iv and 0.5 mg/kg, po; type: ADME, organism-based, Canis lupus familiaris; conditions: in vivo
[8] = Oral bioavailability in dog at 0.5 mg/kg; type: ADME, organism-based, Canis lupus familiaris; conditions: in vivo
[9] = Tmax in dog at 0.5 mg/kg, po; type: ADME, organism-based, Canis lupus familiaris; set-up: dose 0.5 mg/kg, route oral; conditions: in vivo
[10] = Half life in dog at 0.5 mg/kg, iv and 0.5 mg/kg, po; type: ADME, organism-based, Canis lupus familiaris; conditions: in vivo
[11] = Volume of distribution in dog at 0.5 mg/kg, iv and 0.5 mg/kg, po; type: ADME, organism-based, Canis lupus familiaris; conditions: in vivo
[12] = Intrinsic clearance in human liver microsomes assessed per mg of protein; type: ADME, Microsome
[13] = Intrinsic clearance in dog liver microsomes assessed per mg of protein; type: ADME, Canis lupus familiaris, Microsome
[14] = Plasma protein binding in rat at 1 mg/kg, iv and 2 mg/kg, po; type: ADME, organism-based; conditions: read-out: PPB (converted)
[15] = Intrinsic clearance in rat liver microsomes assessed per mg of protein; type: ADME, Microsome
[16] = Clearance in rat at 1 mg/kg, iv and 2 mg/kg, po; type: ADME, organism-based; conditions: in vivo
[17] = Tmax in rat at 2 mg/kg, po; type: ADME, organism-based; set-up: dose 2 mg/kg, route oral; conditions: in vivo
[18] = Half life in rat at 1 mg/kg, iv and 2 mg/kg, po; type: ADME, organism-based; conditions: in vivo
[19] = Oral bioavailability in rat at 2 mg/kg; type: ADME, organism-based; conditions: in vivo
[20] = tested on: Human immunodeficiency virus; assay: Antiviral activity against HIV Ba-L infected in PBMC; type: functional; conditions: Human immunodeficiency virus 1, Ba-L
[21] = Apparent permeability from basolateral to apical side of human Caco2 cells; conditions: Caco-2
[22] = Apparent permeability from apical to basolateral side of human Caco2 cells; conditions: Caco-2
[23] = Octanol-buffer partition coefficient, log D of the compound
hERG (KCNH2) = hERG (KCNH2) (Homo sapiens, UniProt Q12809); assay: in vitro; conditions: HEK293 cells that express human ERG, probe [3H]-dofetilide
Chain of hERG (KCNH2) (Q12809 whole entry): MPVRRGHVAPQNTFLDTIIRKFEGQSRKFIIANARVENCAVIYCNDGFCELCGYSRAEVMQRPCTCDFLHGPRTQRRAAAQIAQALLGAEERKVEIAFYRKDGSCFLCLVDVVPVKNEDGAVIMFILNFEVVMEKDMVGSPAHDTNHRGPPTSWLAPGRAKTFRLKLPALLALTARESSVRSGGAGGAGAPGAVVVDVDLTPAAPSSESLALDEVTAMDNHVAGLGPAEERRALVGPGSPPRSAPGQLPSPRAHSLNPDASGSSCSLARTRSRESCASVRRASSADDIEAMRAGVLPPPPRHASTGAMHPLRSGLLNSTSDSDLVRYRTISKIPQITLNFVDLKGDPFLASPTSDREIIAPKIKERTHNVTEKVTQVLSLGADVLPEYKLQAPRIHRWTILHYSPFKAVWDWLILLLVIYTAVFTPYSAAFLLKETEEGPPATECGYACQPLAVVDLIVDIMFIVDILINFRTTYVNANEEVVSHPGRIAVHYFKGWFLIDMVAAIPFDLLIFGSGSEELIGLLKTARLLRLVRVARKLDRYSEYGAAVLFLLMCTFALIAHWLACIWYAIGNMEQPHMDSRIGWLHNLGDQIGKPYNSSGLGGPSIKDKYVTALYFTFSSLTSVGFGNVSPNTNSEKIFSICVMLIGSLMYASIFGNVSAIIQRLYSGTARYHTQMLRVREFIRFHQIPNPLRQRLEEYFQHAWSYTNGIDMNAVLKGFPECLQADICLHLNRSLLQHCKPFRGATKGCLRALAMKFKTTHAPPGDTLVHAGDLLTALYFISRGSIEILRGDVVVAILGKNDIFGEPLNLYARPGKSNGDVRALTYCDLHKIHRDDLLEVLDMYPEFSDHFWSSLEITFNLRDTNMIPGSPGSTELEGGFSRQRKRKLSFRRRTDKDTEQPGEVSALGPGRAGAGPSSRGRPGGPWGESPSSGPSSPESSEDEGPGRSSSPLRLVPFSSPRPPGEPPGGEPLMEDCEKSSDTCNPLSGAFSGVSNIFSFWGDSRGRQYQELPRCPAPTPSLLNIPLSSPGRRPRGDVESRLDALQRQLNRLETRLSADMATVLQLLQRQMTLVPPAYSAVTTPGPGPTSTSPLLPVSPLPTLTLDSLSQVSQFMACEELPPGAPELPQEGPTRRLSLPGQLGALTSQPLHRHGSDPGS
Description: Displacement of [3H]-dofetilide from human ERG expressed in HEK293 cells at 300 nM

[24] = target: Voltage-gated inwardly rectifying potassium channel KCNH2 (Homo sapiens, UniProt Q12809)
Chain of Voltage-gated inwardly rectifying potassium channel KCNH2 (Q12809 whole entry): as above
Description: Displacement of [3H]-dofetilide from human ERG expressed in HEK293 cells

[25] = Half life in rat at 2 mg/kg, iv and 2 mg/kg, po; type: ADME, organism-based; conditions: in vivo
[26] = Plasma protein binding in rat at 2 mg/kg, iv and 2 mg/kg, po; type: ADME, organism-based; conditions: read-out: PPB (converted)
Rattus norvegicus [27] = assay: fCmax in rat at 2 mg/kg, po; type: ADME, organism-based; set-up: dose 2 mg/kg, route oral; conditions: in vivo
[28] = Clearance in rat at 2 mg/kg, iv and 2 mg/kg, po; type: ADME, organism-based; conditions: in vivo
Rattus norvegicus [29] = assay: Unbound clearance in rat at 2 mg/kg, iv and 2 mg/kg, po; type: ADME, organism-based; conditions: in vivo
Canis familiaris [30] = assay: fCmax in dog at 0.5 mg/kg, po; type: ADME, organism-based, Canis lupus familiaris; set-up: dose 0.5 mg/kg, route oral; conditions: in vivo

SMILES | Activity [1] | Activity [2] | Activity [3] | microsomal CLint [12] [µL/min/mg] | Papp B→A [21] [×10⁻⁶ cm/s] | Papp A→B [22] [×10⁻⁶ cm/s] | logD [23] | inhibition at 0.3 µM (hERG (KCNH2)) [%] | other results
CC(=O)N1CC(C(=O)N[C@@H](CCN2[C@@H]3CC[C@H]2C[C@@H](n2c(C)nc4ccccc42)C3)c2ccccc2)C1 | Active | Active | Active |  |  |  |  |  | 
Cc1nnc(C(C)C)n1[C@H]1C[C@H]2CC[C@@H](C1)N2CC[C@H](NC(=O)C1CCC(F)(F)CC1)c1cccc(F)c1 | inactive | inactive | inactive |  |  |  |  |  | 
COC(=O)N1CCc2nc(C)n([C@H]3C[C@H]4CC[C@@H](C3)N4CC[C@H](NC(C)=O)c3cccc(F)c3)c2C1 | Active | Active | Active | 19 |  |  |  |  | CL (Rattus norvegicus [4]): 518 mL/min/kg; fraction unbound [5]: 0.38; clearance [6]: 36 mL/min/kg; CL (Canis familiaris [7]): 93 mL/min/kg; bioavailability [8]: 42%; Tmax [9]: 0.25 h; half-life [10]: 3.8 h; Vd [11]: 11.8 L/kg; microsomal CLint [13]: 32 µL/min/mg; fraction unbound [14]: 0.29; microsomal CLint [15]: 15 µL/min/mg; clearance [16]: 46 mL/min/kg; Tmax [17]: 2 h; half-life [18]: 1.7 h; bioavailability [19]: 8%; IC90 [20]: 1.6 nM
CC(=O)N[C@@H](CCN1[C@@H]2CC[C@H]1C[C@@H](n1c(C)nc3c1CCN(C(=O)C(C)(C)C)C3)C2)c1cccc(F)c1 |  |  |  | 35 | 24 | 1 | 2.8 |  | 
CCCCN1C(=O)[C@@H]([C@H](O)C2CCCCC2)NC(=O)C12CCN(Cc1ccc(Oc3ccc(C(=O)O)cc3)cc1)CC2 | Active | Active | Active |  |  |  |  |  | 
COC(=O)N1CCc2nc(C)n([C@H]3C[C@H]4CC[C@@H](C3)N4CC[C@H](NC(C)=O)c3ccccc3)c2C1 |  |  |  | 18 | 16 | 3 | 1.5 | 20 | 
Cc1nnc(C(C)C)n1[C@H]1C[C@H]2CC[C@@H](C1)N2CC[C@H](NC(=O)C1CCC(F)(F)CC1)c1ccccc1 [MARAVIROC] |  |  |  |  |  |  |  |  | IC90 [20]: 3.2 nM
CC(=O)N[C@@H](CCN1[C@@H]2CC[C@H]1C[C@@H](n1c(C)nc3c1CN(C(=O)OC(C)C)CC3)C2)c1ccccc1 |  |  |  | 44 | 28 | 5 | 2.7 | 75 | 
CC(=O)N[C@@H](CCN1[C@@H]2CC[C@H]1C[C@@H](n1c(C)nc3c1CCN(C(C)=O)C3)C2)c1cccc(F)c1 |  |  |  | < 8 | 6 | < 1 | 1.4 |  | 
COC(=O)N[C@@H](CCN1[C@@H]2CC[C@H]1C[C@@H](n1c(C)nc3c1CN(C(C)=O)CC3)C2)c1ccccc1 |  |  |  | 42 | 27 | 4 | 1.4 | 57 | 
CCC(=O)N1CCc2c(nc(C)n2[C@H]2C[C@H]3CC[C@@H](C2)N3CC[C@H](NC(C)=O)c2cccc(F)c2)C1 | Active | Active | Active | 11 | 13 | 2 | 1.7 |  | IC50 [24]: 5000 nM
CC(=O)N[C@@H](CCN1[C@@H]2CC[C@H]1C[C@@H](n1c(C)nc3c1CN(C(C)C)CC3)C2)c1ccccc1 |  |  |  | 46 |  |  | 0.8 |  | 
CC(=O)N[C@@H](CCN1[C@@H]2CC[C@H]1C[C@@H](n1c(C)nc3c1CCN(C(=O)C(C)C)C3)C2)c1cccc(F)c1 [PF-232798] | Active | Active | Active | 13 | 8 | 2 | 2 |  | IC50 [24]: 12000 nM; CL (Rattus norvegicus [4]): 526 mL/min/kg; fraction unbound [5]: 0.53; clearance [6]: 36 mL/min/kg; CL (Canis familiaris [7]): 63 mL/min/kg; bioavailability [8]: 31%; Tmax [9]: 1 h; half-life [10]: 3.4 h; Vd [11]: 10.5 L/kg; microsomal CLint [13]: < 9 µL/min/mg; fraction unbound [14]: 0.38; microsomal CLint [15]: < 6 µL/min/mg; clearance [16]: 201 mL/min/kg; half-life [18]: 1.4 h; bioavailability [19]: < 5%; IC90 [20]: 2 nM
COC(=O)N[C@@H](CCN1[C@@H]2CC[C@H]1C[C@@H](n1c(C)nc3c1CN(C(=O)OC)CC3)C2)c1cccc(F)c1 |  |  |  | 92 | 17 | 17 | 2.6 | 69 | 
CC(=O)N[C@@H](CCN1[C@@H]2CC[C@H]1C[C@@H](n1c(C)nc3c1CCN(c1ccncn1)C3)C2)c1cccc(F)c1 |  |  |  | 35 | 15 | 4 | 2.6 |  | IC50 [24]: 10 nM
CC(=O)N[C@@H](CCN1[C@@H]2CC[C@H]1C[C@@H](n1c(C)nc3c1CN(C(=O)C(C)C)CC3)C2)c1ccccc1 |  |  |  | 42 | 20 | < 1 | 1.6 | 0 | 
CC(=O)N[C@@H](CCN1[C@@H]2CC[C@H]1C[C@@H](n1c(C)nc3c1CCN(c1cnccn1)C3)C2)c1cccc(F)c1 |  |  |  | 183 |  |  | 3 |  | IC50 [24]: 1000 nM
CC(=O)N[C@@H](CCN1[C@@H]2CC[C@H]1C[C@@H](n1c(C)nc3ccccc31)C2)c1ccccc1 |  |  |  |  | 35 | 13 |  |  | IC50 [24]: 1500 nM
COC[C@@H](c1ccc(C(F)(F)F)cc1)N1CCN(C2(C)CCN(C(=O)c3c(C)ncnc3C)CC2)C[C@@H]1C | Active | Active | Active |  |  |  |  |  | 
CCCC(=O)N1CCc2c(nc(C)n2[C@H]2C[C@H]3CC[C@@H](C2)N3CC[C@H](NC(C)=O)c2cccc(F)c2)C1 |  |  |  | 25 | 26 | 1 | 2.2 |  | 
CC(=O)N[C@@H](CCN1[C@@H]2CC[C@H]1C[C@@H](n1c(C)nc3c1CN(S(C)(=O)=O)CC3)C2)c1ccccc1 |  |  |  | 24 |  |  | 0.9 | 10 | 
COC(=O)N1CCc2c(nc(C)n2[C@H]2C[C@H]3CC[C@@H](C2)N3CC[C@H](NC(C)=O)c2cccc(F)c2)C1 | Active | Active | Active | < 8 | 11 | 3 | 1.9 |  | IC50 [24]: 2000 nM; half-life [25]: 2.3 h; fraction unbound [26]: 0.32; Cmax_unbound (Rattus norvegicus [27]): 208 nM; clearance [28]: 91 mL/min/kg; fraction unbound [5]: 0.27; clearance [6]: 36 mL/min/kg; CL (Rattus norvegicus [29]): 253 mL/min/kg; CL (Canis familiaris [7]): 150 mL/min/kg; bioavailability [8]: 50%; Tmax [9]: 0.5 h; half-life [10]: 3.3 h; Vd [11]: 9.9 L/kg; microsomal CLint [13]: < 9 µL/min/mg; microsomal CLint [15]: < 6 µL/min/mg; Tmax [17]: 2 h; Cmax_unbound (Canis familiaris [30]): 9 nM; bioavailability [19]: 20%; IC90 [20]: 0.8 nM
Cc1nc(C(C)C)n([C@H]2C[C@H]3CC[C@@H](C2)N3CC[C@H](NC(=O)C2CCC(F)(F)CC2)c2ccccc2)n1 |  |  |  |  | 26 | 11 |  |  | IC50 [24]: 4230 nM
CC(=O)N[C@@H](CCN1[C@@H]2CC[C@H]1C[C@@H](n1c(C)nc3c1CN(C(C)=O)CC3)C2)c1ccccc1 |  |  |  | < 7 | 5 | < 1 | 0.6 | 0 | 
CC(=O)N[C@@H](CCN1[C@@H]2CC[C@H]1C[C@@H](n1c(C)nc3c1CN(C)CC3)C2)c1ccccc1 |  |  |  | < 7 | 9 | < 1 | 0.4 | 0 | 
Cc1nnc(C2CC2)n1[C@H]1C[C@H]2CC[C@@H](C1)N2CC[C@H](NC(=O)C1CCC(F)(F)CC1)c1ccccc1 | inactive | inactive | inactive |  |  |  |  |  | 
Cc1nc2ccccc2n1[C@H]1C[C@H]2CC[C@@H](C1)N2CC[C@H](NC(=O)C1CCOCC1)c1ccccc1 | Active | Active | Active |  |  |  |  |  | 
CCC(=O)N1CCc2nc(C)n([C@H]3C[C@H]4CC[C@@H](C3)N4CC[C@H](NC(C)=O)c3ccccc3)c2C1 |  |  |  | < 7 | 17 | < 1 | 1.2 | 13 | 
COC(=O)N[C@@H](CCN1[C@@H]2CC[C@H]1C[C@@H](n1c(C)nc3c1CN(C(C)=O)CC3)C2)c1cccc(F)c1 |  |  |  | 24 | 23 | 6 | 1.7 | 28 | 
